Test results: ChEMBL document CHEMBL5107965, “The progress of small-molecules and degraders against BCR-ABL for the treatment of CML” (Eur J Med Chem, 2022)
In brackets after ≈: the same amount, converted by molar mass.

What was measured:
[1] = target: Mast/stem cell growth factor receptor Kit (Homo sapiens, UniProt P10721); assay: Inhibition of c-Kit (unknown origin)
[2] = target: Platelet-derived growth factor receptor beta (Homo sapiens, UniProt P09619); assay: Inhibition of PDGFRbeta (unknown origin)
Chain of Platelet-derived growth factor receptor beta (P09619 whole entry): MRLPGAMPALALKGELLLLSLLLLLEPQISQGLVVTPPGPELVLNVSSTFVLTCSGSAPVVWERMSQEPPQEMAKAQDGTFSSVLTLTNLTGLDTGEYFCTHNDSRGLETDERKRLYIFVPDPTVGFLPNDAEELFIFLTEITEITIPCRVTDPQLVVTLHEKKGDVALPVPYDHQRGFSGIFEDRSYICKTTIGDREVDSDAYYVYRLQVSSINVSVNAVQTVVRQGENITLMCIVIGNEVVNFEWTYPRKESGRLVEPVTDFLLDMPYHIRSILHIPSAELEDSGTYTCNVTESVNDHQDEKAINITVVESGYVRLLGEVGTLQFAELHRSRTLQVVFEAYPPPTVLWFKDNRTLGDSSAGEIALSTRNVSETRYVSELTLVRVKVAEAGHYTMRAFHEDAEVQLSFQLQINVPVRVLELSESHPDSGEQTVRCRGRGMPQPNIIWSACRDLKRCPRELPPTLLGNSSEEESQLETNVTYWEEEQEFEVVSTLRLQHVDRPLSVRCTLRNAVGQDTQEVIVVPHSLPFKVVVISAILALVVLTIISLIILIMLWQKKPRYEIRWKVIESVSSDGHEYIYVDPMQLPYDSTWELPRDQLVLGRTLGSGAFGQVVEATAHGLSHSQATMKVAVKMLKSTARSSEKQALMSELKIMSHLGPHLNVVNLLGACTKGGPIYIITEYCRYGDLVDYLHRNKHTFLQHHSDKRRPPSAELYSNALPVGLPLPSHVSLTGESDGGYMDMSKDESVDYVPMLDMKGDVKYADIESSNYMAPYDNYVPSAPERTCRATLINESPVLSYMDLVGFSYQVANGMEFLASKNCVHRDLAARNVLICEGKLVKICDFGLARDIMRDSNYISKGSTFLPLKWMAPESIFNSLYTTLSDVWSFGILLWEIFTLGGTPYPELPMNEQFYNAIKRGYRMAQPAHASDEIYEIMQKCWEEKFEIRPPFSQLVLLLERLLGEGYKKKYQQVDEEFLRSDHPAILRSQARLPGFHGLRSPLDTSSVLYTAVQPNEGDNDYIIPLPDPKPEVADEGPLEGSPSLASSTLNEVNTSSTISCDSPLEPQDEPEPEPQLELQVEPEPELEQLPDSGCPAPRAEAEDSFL

K562 [3] = assay: Antiproliferative activity against imatinib resistant human K562 cells assessed as cell growth inhibition measured after 48 to 72 hrs by MTS assay; format: functional, cell-based
K562 [4] = assay: Antiproliferative activity against imatinib resistant human K562 cells harbouring wild type ABL assessed as cell growth inhibition by XTT assay; format: functional
K562 [5] = assay: Antiproliferative activity against imatinib resistant human K562 cells harbouring ABL-T315I mutant assessed as cell growth inhibition by XTT assay; format: functional
K562 [6] = assay: Antiproliferative activity against human K562 cells assessed as cell growth inhibition; format: functional, cell-based
Bcr/Abl fusion protein [7] = target: T1, Bcr/Abl fusion protein (Homo sapiens, UniProt P00519); assay: Inhibition of BCR-ABL (unknown origin); format: protein assay
[8] = Inhibition of Abl […] mutant (unknown origin); design: species or system Homo sapiens
BaF3 = assay: cells; conditions: Mus musculus
K562 [9] = assay: Cytotoxicity against human K562 cells assessed as cell growth inhibition measured after 72 hrs by MTT assay; format: functional, cell-based; conditions: K562, 72 h
[10] = Ratio of drug concentration in brain to plasma of mouse at 30 mg/kg, measured after 1 hr; format: ADME, organism-based; conditions: read-out: BPR
BCR/ABL1 [11] = target: BCR/ABL1 (Mus musculus, UniProt P00520, T315I); assay: Inhibition of BCR-ABL T315I mutant phosphorylation in mouse BaF3 cells incubated for 4 hrs by immunoblotting analysis; format: cell-based
Chain of BCR/ABL1 (Mus musculus, UniProt P00520, T315I) (P00520 whole entry T315I, looked up): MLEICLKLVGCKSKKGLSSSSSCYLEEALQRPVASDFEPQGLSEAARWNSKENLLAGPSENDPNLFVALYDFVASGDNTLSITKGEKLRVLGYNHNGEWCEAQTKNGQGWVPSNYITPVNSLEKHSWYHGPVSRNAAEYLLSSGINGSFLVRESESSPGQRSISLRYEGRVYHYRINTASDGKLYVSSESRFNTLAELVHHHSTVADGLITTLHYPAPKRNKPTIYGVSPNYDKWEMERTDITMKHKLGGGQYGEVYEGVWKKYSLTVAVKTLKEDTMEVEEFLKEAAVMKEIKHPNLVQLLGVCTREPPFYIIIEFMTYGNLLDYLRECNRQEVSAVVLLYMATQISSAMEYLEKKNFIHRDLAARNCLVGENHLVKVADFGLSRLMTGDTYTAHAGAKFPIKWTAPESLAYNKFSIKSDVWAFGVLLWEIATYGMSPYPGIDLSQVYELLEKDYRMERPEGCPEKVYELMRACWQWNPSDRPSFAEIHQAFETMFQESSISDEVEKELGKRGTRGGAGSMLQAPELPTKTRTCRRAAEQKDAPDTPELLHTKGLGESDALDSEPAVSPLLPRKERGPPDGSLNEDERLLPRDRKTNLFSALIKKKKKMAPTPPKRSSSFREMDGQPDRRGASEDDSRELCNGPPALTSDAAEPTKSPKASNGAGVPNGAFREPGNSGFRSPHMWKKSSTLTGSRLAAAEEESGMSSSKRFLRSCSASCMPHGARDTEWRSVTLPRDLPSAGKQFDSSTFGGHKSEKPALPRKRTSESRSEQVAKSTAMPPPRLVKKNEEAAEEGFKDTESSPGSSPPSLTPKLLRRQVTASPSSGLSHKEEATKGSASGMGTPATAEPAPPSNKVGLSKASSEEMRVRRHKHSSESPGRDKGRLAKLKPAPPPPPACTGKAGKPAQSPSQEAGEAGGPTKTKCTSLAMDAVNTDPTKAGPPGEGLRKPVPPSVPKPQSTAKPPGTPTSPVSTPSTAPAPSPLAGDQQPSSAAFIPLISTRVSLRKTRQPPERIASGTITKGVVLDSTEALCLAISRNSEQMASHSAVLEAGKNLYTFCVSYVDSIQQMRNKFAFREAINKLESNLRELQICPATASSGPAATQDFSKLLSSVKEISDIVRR

[12] = Inhibition of BCR-ABL L248R mutant phosphorylation in mouse BaF3 cells incubated for 4 hrs by immunoblotting analysis; format: cell-based; conditions: BaF3, 4 h
[13] = Plasma concentration in mouse at 30 mg/kg, measured after 1 hr; format: ADME, organism-based
BCR/ABL1 [14] = target: BCR/ABL1 (Mus musculus, UniProt P00520, E255V); assay: Inhibition of BCR-ABL E255V mutant phosphorylation in mouse BaF3 cells incubated for 4 hrs by immunoblotting analysis; format: cell-based
Chain of BCR/ABL1 (Mus musculus, UniProt P00520, E255V) (P00520 whole entry E255V, looked up): as the sequence (P00520 whole entry T315I, looked up) above, with E255V, I315T counted along it

[15] = Drug concentration in brain of mouse at 30 mg/kg, measured after 1 hr; format: ADME, organism-based; conditions: read-out: Ct
Bcr/Abl fusion protein [16] = target: T1, Bcr/Abl fusion protein; assay: Inhibition of wild type BCR-ABL phosphorylation in mouse BaF3 cells incubated for 4 hrs by immunoblotting analysis; format: cell-based
[17] = Inhibition of BCR-ABL Y253H mutant phosphorylation in mouse BaF3 cells incubated for 4 hrs by immunoblotting analysis; format: cell-based; conditions: BaF3, 4 h
Aurora kinase A = target: T2, Aurora kinase A (Homo sapiens, UniProt O14965); assay: Inhibition of Aurora A (unknown origin)
T2 sequence (O14965 whole entry): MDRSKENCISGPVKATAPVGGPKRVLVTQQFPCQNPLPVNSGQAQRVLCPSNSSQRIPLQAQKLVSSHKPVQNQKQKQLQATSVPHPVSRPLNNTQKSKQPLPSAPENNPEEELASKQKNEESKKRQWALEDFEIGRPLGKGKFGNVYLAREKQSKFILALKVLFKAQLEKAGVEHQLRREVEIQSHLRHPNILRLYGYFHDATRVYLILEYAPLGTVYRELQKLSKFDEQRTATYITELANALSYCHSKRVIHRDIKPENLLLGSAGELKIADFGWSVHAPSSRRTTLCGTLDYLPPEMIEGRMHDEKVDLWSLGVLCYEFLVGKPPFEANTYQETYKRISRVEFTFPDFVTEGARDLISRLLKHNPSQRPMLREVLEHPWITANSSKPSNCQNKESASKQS

K562 [18] = assay: Antiproliferative activity against imatinib resistant human K562 cells expressing STAT5 assessed as cell growth inhibition; format: functional, cell-based
K562 [19] = assay: Antiproliferative activity against imatinib resistant human K562 cells expressing BCR-ABL assessed as cell growth inhibition; format: functional, cell-based
[20] = target: Tyrosine-protein kinase ABL1 (Homo sapiens, UniProt P00519)
Description: Inhibition of wild type Abl (unknown origin)

[21] = target: Tyrosine-protein kinase ABL1 (Homo sapiens, UniProt P00519, T315I); assay: Inhibition of Abl T315I mutant (unknown origin)

Chain of Mast/stem cell growth factor receptor Kit (P10721 whole entry): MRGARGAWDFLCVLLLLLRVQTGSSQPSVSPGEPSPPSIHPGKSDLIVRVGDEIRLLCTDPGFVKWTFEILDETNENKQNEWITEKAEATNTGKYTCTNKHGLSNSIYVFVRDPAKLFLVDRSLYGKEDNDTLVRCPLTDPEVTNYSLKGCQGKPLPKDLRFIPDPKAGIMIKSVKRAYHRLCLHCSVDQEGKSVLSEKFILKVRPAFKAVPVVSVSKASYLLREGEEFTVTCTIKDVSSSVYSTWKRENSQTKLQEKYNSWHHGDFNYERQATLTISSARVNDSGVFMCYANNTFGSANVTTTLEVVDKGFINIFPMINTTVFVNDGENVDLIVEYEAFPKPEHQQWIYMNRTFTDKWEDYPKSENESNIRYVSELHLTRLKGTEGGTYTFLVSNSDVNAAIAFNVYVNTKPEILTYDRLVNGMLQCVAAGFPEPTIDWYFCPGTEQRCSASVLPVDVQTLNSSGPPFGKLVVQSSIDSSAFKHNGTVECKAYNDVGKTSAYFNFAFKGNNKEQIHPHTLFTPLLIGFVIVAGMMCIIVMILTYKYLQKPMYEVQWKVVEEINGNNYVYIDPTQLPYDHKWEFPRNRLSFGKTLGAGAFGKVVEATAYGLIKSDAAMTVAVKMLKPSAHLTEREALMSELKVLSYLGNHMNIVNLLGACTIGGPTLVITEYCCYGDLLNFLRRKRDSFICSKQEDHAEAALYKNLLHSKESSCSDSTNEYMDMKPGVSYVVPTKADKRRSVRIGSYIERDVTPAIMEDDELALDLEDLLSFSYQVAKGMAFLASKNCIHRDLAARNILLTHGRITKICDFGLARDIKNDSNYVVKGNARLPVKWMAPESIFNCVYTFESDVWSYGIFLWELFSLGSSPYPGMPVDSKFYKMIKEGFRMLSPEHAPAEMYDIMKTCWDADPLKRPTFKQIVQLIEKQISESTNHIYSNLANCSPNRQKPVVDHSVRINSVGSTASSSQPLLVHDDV

SMILES: Cc1ncc(NC(=O)c2ccc(CN3CCN(C)CC3)c(C(F)(F)F)c2)cc1Nc1nccc(-c2cccnc2)n1 [FLUMATINIB]
- IC50 [1]: 666 nM
- IC50 [2]: 308 nM

SMILES: CC(C)=CCC[C@]1(C)C=Cc2c(O)c3c(c(CC=C(C)C)c2O1)O[C@]12C(=C[C@@H]4C[C@H]1C(C)(C)O[C@@]2(C/C=C(/C)C(=O)O)C4=O)C3=O [GAMBOGIC ACID]
- IC50 (K562 [3]): 620 nM

SMILES: O=C(c1ccc(/C=C/c2n[nH]c3ccccc23)cc1)N1CCNCC1 [KW-2449]
- GI50 (K562 [4]): 270 nM
- GI50 (K562 [5]): 270 nM

SMILES: COC(=O)C[C@](O)(CCCC(C)(C)O)C(=O)O[C@@H]1C(OC)=C[C@]23CCCN2CCc2cc4c(cc2[C@H]13)OCO4 [OMACETAXINE MEPESUCCINATE]
- IC50 (K562 [6]): 0.0439 µg/mL (≈ 0.0804 µM)

SMILES: Cc1cn(-c2cc(NC(=O)c3ccc(C)c(Nc4nccc(-c5cnccn5)n4)c3)cc(C(F)(F)F)c2)cn1 [RADOTINIB]
- IC50 (Bcr/Abl fusion protein [7]): 1.2 nM

SMILES: CNC(=O)c1cc(Oc2ccc(NC(=O)Nc3cc(C(C)(C)C)nn3-c3ccc4ncccc4c3)c(F)c2)ccn1 [REBASTINIB]
- IC50 [8]: 1.4 nM

SMILES: Cc1cc(Nc2cc(N3CCN(C)CC3)nc(Sc3ccc(NC(=O)C4CC4)cc3)n2)n[nH]1 [TOZASERTIB]
- IC50 (BaF3): 100 nM

SMILES: Cc1ccc(C(=O)Nc2ccc(CN3CCN(C)CC3)c(C(F)(F)F)c2)cc1C#Cc1nnc2ccccn12 [VAMOTINIB]
- IC50 (K562 [9]): 1 nM

SMILES: Cc1ccc(C(=O)NNC(=O)c2c(C)cccc2Cl)cc1C#Cc1cnc2ccccc2c1 [VODOBATINIB]
- Kp at 1 h [10]: 0.4
- IC50 (BCR/ABL1 [11]): 1970 nM
- IC50 [12]: 167 nM
- concentration at 1 h [13]: 4800 ng/mL
- IC50 (BCR/ABL1 [14]): 165 nM
- concentration at 1 h [15]: 1900 ng/g
- IC50 (Bcr/Abl fusion protein [16]): 0.9 nM
- IC50 [17]: 154 nM

SMILES: CC(C)c1cc(CNc2nc(Nc3cc(C4CC4)[nH]n3)cc(N3CCN(C)CC3)n2)on1 [XL-228]
- IC50 (Aurora kinase A): 3.1 nM
- IC50 (K562 [18]): 43 nM
- IC50 (K562 [19]): 33 nM
- IC50 [20]: 5 nM
- IC50 [21]: 14 nM
